The values that follow come from patent US4963553A, “4-[(substituted) alkylcarbonyl]-4,5-dihydro- and -4,5,6,7-tetrahydro-7-[(substituted)phenyl]pyrazolo[1,5-a]pyrimidines” (American Cyanamid Co., priority 1988, dated 1990).

Experiment [1] relates to mice (tetrabenazine-induced depression). Put plainly: Tetrabenazine-induced depression (antidepressant). Format: in vivo, mouse. On the set-up: key: Active: A compound is considered active if 3 or more of 10 mice are protected against the tetrabenazine-induced effects. The following applies: 25 mg/kg, oral, 10 mice. As for the experimental part: The compounds of the invention are useful as antidepressant agents in warm-blooded animals as verified in the following tests. First, the antidepressant properties of these compounds were tested by measuring their ability to counteract depression induced in animals by the administration of tetrabenazine methanesulfonate. Each test compound was administered orally to 10 mice at a dose of 25 mg/kg of body weight. Thirty minutes later, tetrabenazine methane sulfonate was administered intraperitoneally to each mouse at a dose of 39 mg/kg of body weight, which dose is known to depress markedly the exploratory behavior of normal mice. Thirty minutes later the mice were tested for their exploratory behavior as described by E. Greenblatt and A. C. Osterberg, Toxicology and Applied Pharmacology, 7. 566-578 (1965). A compound is considered active if 3 or more of 10 mice are protected against the tetrabenazine-induced effects.

Experiment [2] addresses T1, human platelet membranes (3H-imipramine receptor) (Homo sapiens, UniProt P31645).
T1 construct: Fresh human platelet concentrates (less than 48 hours old) were obtained from the New York Blood Center; tissue New York Blood Center; host or cells: human blood platelets, membranes
As to the kind of experiment: 3H-imipramine binding to human platelet membranes. The method, then: The activity of the compounds of the invention as antidepressant agents was further verified# in the following test which measures the ability of a test compound to inhibit 3H-imipramine binding to human platelet membranes.
Platelet membranes were obtained using the procedure described by Wennogle, L. et al., Pharmac. Biochem. Behav., 15. 975 (1981). Fresh human platelet concentrates (less than 48 hours old) were obtained from the New York Blood Center. These concentrates were prepared in a citrate-dextrose anticoagulant using standard techniques. Platelets were washed twice by centrifugation (2500×G, 10 minutes) in 50 volumes of an antiprotease buffer containing 0.005M Tris potassium chloride, 0.12M sodium chloride, 0.05M Tris pH 7.5, 0.025 Units/ml aprotinin, 0.05 μg/m pepstatin, 2×10^-5 bacitracin, 3 mM ethylenediaminetetraacetic acid and 1.0 mM ethyleneglycol-bis (β-aminoethylether)N,N'-tetra-acetic acid. […] All procedures were conducted at 0° C. using plastic laboratory-ware throughout the platelet membrane preparation. Platelets were resuspended in 20 volumes of buffer and sonicated 3 times using 10 second bursts of a Branson sonifier (cell disrupter 350) at setting 6 (standard 3/4 inch horn), keeping the sample on ice throughout the procedure. Platelet membranes were then washed twice at 18,000×G for 20 minutes with 50 volumes of the antiprotease buffer and resuspended to 3.0 mg. protein/ml using the Bradford protein analysis with bovine gamma globulin as standard. Membranes were used immediately or stored frozen in liquid nitrogen.
The displacement of 3H-imipramine binding to human platelet membranes was performed essentially as described by Paul, S. M., et al., Life Sci., 953 (1980) with the following modifications. Membranes (0.3 mg protein) were suspended in antiprotease buffer with both […] 3H-imipramine (New England Nuclear) and displacing drug or buffer in a total volume of 250 #1 in glass test tubes. Samples were incubated for 90 minutes at 0° C., then diluted to 5 ml in 0.12M sodium chloride, 0.005M potassium chloride, 0.05M Tris pH 7.5 (wash buffer) and immediately filtered through GF/B Whatman Filters and washed twice with 5 ml of wash buffer. Filters were counted in a liquid scintillation counter after addition of Beckman HP Scintillant.
Non-specific binding of 3H-imipramine was defined as that fraction (generally 35%) of radioactivity that was not displaced by 10 μM desmethylimipramine. Specific binding was determined by subtraction of this non-specific level from values for total 3H-imipramine binding which were measured by incubating 3H-imipramine in the absence of displacing drug. Compounds were tested in duplicate test tubes at a concentration of 10 μM. Compounds which inhibited binding by more than 50% were considered to be active.

For experiment [3], the system named is mice (hypoxic environment). Put plainly: Hypoxic survival test. Format: in vivo, mouse (Royal Hart). The note with it: intraperitoneal, 10% oxygen, 5 minutes. The procedure, abridged: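 Groups of 20 Royal Hart mice (6 weeks old) dosed i.p. with compound in saline at 1–200 mg/kg, 30 minutes before exposure to 10% oxygen/90% carbon dioxide; survival scored after 5 minutes. Saline and physostigmine (0.125 mg/kg i.p.) groups run in parallel.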

Experiment [4] deals with mice (anoxic induced amnesia). Put plainly: Passive Avoidance Anoxic Induced Amnesia Test. The note with it: intraperitoneal, vs saline control. Format: in vivo, mouse (Swiss-Webster, middle-aged). From the text:
A useful in vivo test associated with decreased neural function in mammals is the Passive Avoidance Anoxic Induced Amnesia Test. This test is used to determine the attenuation of anoxic induced amnesia in mice treated with drug, as compared to saline treated control animals with no drug. A shock-motivated, single trial, step-through passive avoidance procedure is used. Groups of 25 Swiss-Webster, middle-aged mice (9 months of age) are placed singly in the front chamber of a 2-chamber box and are allowed to voluntarily cross into the rear chamber. As soon as the mouse enters the rear chamber, a door automatically traps the animal and a mild electric shock (0.4 mA for 4 seconds) is delivered to its feet. Following the foot shock, the mice are initially placed in an anoxic environment (0% oxygen) for 12 seconds, which quickly induces unconsciousness. […] All testing is performed 24 hours later, and in all cases the mice appear fully recovered from the previous anoxic/hypoxic treatment. […] Control animals are injected intraperitoneally only with saline at 0.01 ml/g of body weight. The latent period prior to entering the rear chamber is recorded for both training and testing sessions. The greater the memory of being shocked, the greater the reluctance to enter into the rear chamber and the higher will be the latent period prior to re-entry. […]

[5] abbreviates: Mus musculus, ip, 5 min, 100 mg/kg, read-out: % Survivors.

Counter-ions that a name gives are not always drawn.

T1 sequence (P31645 whole entry): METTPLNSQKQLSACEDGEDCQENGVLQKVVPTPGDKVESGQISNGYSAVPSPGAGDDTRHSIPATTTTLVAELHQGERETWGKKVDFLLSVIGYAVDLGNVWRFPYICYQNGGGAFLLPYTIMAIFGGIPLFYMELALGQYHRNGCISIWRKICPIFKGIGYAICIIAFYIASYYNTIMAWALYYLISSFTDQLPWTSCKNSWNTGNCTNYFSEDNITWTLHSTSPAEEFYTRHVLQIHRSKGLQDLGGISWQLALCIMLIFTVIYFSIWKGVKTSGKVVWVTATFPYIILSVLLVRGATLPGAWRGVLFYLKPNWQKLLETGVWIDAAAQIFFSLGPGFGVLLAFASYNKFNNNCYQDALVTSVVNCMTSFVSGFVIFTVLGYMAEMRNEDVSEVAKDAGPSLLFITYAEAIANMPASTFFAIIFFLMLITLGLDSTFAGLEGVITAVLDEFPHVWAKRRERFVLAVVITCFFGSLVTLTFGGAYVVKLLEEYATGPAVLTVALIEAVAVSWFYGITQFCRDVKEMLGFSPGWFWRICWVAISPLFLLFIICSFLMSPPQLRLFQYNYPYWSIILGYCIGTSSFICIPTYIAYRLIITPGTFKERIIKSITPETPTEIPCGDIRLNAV

A word on the inhibition: it is how much of the control response was suppressed. With `COc1cccc(CN2CCN(CC(=O)N3CC=C(c4cccc(C(F)(F)F)c4)n4ncc(C#N)c43)CC2)c1` [Example 20, 4,5-Dihydro-4-[[4-[(3-methoxyphenyl)methyl]-1-piperazinyl]acetyl]-7-[3-(trifluoromethyl)phenyl]pyrazolo[1,5-a]pyrimidine-3-carbonitrile], in experiment [1], the “Result (protection against tetrabenazine-induced depression)” value (from here on “Result”) is on record as “Active”. In experiment [2], this compound returned an inhibition at 10 µM of 78%. In the case of `N#Cc1cnn2c1N(C(=O)CN1CCN(Cc3ccc4c(c3)OCO4)CC1)CC=C2c1cccc(C(F)(F)F)c1` [Example 23, 4-[[4-(1,3-Benzodioxol-5-ylmethyl)-1-piperazinyl]acetyl]-4,5-dihydro-7-[3-(trifluoromethyl)phenyl]pyrazolo[1,5-a]pyrimidine-3-carbonitrile], the “Result” value in experiment [1] was “Active”. Besides, the inhibition at 10 µM in experiment [2] was determined as 81%.

On to `CN(C)CCCN1CCN(CC(=O)N2CC=C(c3cccc(C(F)(F)F)c3)n3ncc(C#N)c32)CC1` [Example 33, 4-[[4-[3-(Dimethylamino)propyl]-1-piperazinyl]acetyl]-4,5-dihydro-7-[3-(trifluoromethyl)phenyl]pyrazolo[1,5-a]pyrimidine-3-carbonitrile], for which the inhibition at 10 µM in experiment [2] was determined as 89%. The same measure, in the same setting: then `N#Cc1cnn2c1N(C(=O)CN1CCN(Cc3ccc(Cl)cc3)CC1)CC=C2c1cccc(C(F)(F)F)c1` [Example 39, 4-[[4-[(4-Chlorophenyl)methyl]-1-piperazinyl]acetyl]-7-[3-(trifluoromethyl)phenyl]pyrazolo[1,5-a]pyrimidine-3-carbonitrile], with 84%. For `N#Cc1cnn2c1N(C(=O)CN1CCN(CCCOc3ccccc3)CC1)CCC2c1cccc(C(F)(F)F)c1` (stereo not shown) [Example 57, 4,5,6,7-Tetrahydro-4-[[4-(3-phenoxypropyl)-1-piperazinyl]acetyl]-7-[3-(trifluoromethyl)phenyl]pyrazolo[1,5-a]pyrimidine-3-carbonitrile], the responders at 10 mg/kg in experiment [3] (Mus musculus, ip, 5 min, 10 mg/kg, read-out: % Survivors) amounted to 15%. The compound also came in with an inhibition at 10 µM in experiment [2] of 57%. Turning to `N#Cc1cnn2c1N(C(=O)CCN1CCN(Cc3ccccc3)CC1)CC=C2c1cc(Cl)ccc1Cl` [Example 71, 7-(2,5-Dichlorophenyl)-4,5-dihydro-4-[1-oxo-3-[4-(phenylmethyl)-1-piperazinyl]propyl]pyrazolo[1,5-a]pyrimidine-3-carbonitrile], in experiment [2], at 10 µM the inhibition was 79%. On to `COc1cccc(CN2CCN(CC(=O)N3CC=C(c4cccc(C(F)(F)F)c4)n4ncc(C#N)c43)CC2)c1.Cl.Cl` [Example 79, 4,5-Dihydro-4-[[4-[(3-methoxyphenyl)methyl]-1-piperazinyl]acetyl]-7-[3-(trifluoromethyl)phenyl]pyrazolo[1,5-a]pyrimidine-3-carbonitrile, dihydrochloride], for which the “Result” value in experiment [1] is “Active”. In experiment [2], `N#Cc1cnn2c1N(C(=O)CCN1CCN(Cc3ccc(Cl)cc3)CC1)CC=C2c1cccc(C(F)(F)F)c1` [Example 85, 4-[3-[(4-Chlorophenyl)methyl]-1-piperazinyl]-1-oxopropyl]dihydro-7-[3-(trifluoromethyl)phenyl]pyrazolo[1,5-a]pyrimidine-3-carbonitrile, dihydrochloride] returned an inhibition at 10 µM of 85%.

`Cl.N#Cc1cnn2c1N(C(=O)CN1CCN(Cc3ccccc3)CC1)CC=C2c1cccc(C(F)(F)F)c1` [Example 94, 4,5-Dihydro-4-[[4-(phenylmethyl)-1-piperazinyl]acetyl]-7-[3-(trifluoromethyl)phenyl]pyrazolo[1,5-a]pyrimidine-3-carbonitrile, hydrochloride]: the “% Survivors” value in experiment [3] (100 mg/kg) amounted to 83%. Moreover, the “% Improvement” value in experiment [4] (10 mg/kg) stood at 30%. As to `CN(C)CCN1CCN(CC(=O)N2CC=C(c3cccc(C(F)(F)F)c3)n3ncc(C#N)c32)CC1` [Example 97, 4-[[4-[2-(Dimethylamino)ethyl]-1-piperazinyl]acetyl]4,5-dihydro-7-[3-(trifluoromethyl)phenyl]pyrazolo[1,5-a]pyrimidine-3-carbonitrile. dihydrochloride], in experiment [2], the inhibition at 10 µM was 72%.

For `N#Cc1cnn2c1N(C(=O)CN1CCN(CC#CCN3CCCC3=O)CC1)CC=C2c1cccc(C(F)(F)F)c1` [Example 109, 4,5-Dihydro-4-[[4-[4-(2-oxo-1-pyrrolidinyl)-2-butynyl]-1-piperazinyl]acetyl]-7-[3-(trifluoromethyl)phenyl]pyrazolo[1.5-a]pyrimidine-3-carbonitrile], the responders at 100 mg/kg in experiment [3] (setting [5]) came out at 68%. Besides, the “% Improvement” value in experiment [4] (1 mg/kg) stood at 63%.

As to `CC1=C(c2ccc(Cl)cc2)n2ncc(C#N)c2N(C(=O)CN2CCN(Cc3cccc(Cl)c3)CC2)C1` [Example 133, 7-(4-Chlorophenyl)-4-[[4-[(3-chlorophenyl)methyl]-1-piperazinyl]acetyl]-4,5-dihydro-6-methylpyrazolo[1,5-a]pyrimidine-3-carbonitrile. dihydrochloride], the responders at 100 mg/kg in experiment [3] (setting [5]) is 62%. Also, the responders at 200 mg/kg in experiment [3] (Mus musculus, ip, 5 min, 200 mg/kg, read-out: % Survivors) came out at 73%. Also, in experiment [4] (10 mg/kg), the “% Improvement” value is on record as 66%. For `CC(c1ccccc1)N1CCN(CC(=O)N2CC=C(c3cccc(C(F)(F)F)c3)n3ncc(C#N)c32)CC1` (stereo not shown) [Example 141], the responders at 25 mg/kg in experiment [3] (Mus musculus, ip, 5 min, 25 mg/kg, read-out: % Survivors) was 4%. For the same compound, the “% Improvement” value in experiment [4] (25 mg/kg) is reported as 39%. On to `N#Cc1cnn2c1N(C(=O)CN1CCN(Cc3cnn(-c4ccccc4)n3)CC1)CC=C2c1cccc(C(F)(F)F)c1` [Example 146], for which the responders at 100 mg/kg in experiment [3] (setting [5]) came out at 52.5%. For the same compound, in experiment [4] (100 mg/kg), the “% Improvement” value was determined as 92%.

Regarding `N#Cc1cnn2c1N(C(=O)CN1CCN(Cc3ccccc3)CC1)CC=C2c1ccccc1` [Example 147, 4,5-Dihydro-7-phenyl-4-[[4-(phenylmethyl)-1-piperazinyl]acetyl]pyrazolo[1,5-a]pyrimidine-3-carbonitrile], the responders at 100 mg/kg in experiment [3] (setting [5]) amounted to 50%. The “% Improvement” value in experiment [4] (25 mg/kg) was 45%.
